Results taken from patent US4874795A, “Composition for delivery of orally administered drugs and other substances” (priority 1986, dated 1989).
Read-outs that look alike come from different tables or passages of the source.

Tests used:
[1] = cited from earlier work
[2] = in vivo; cited from earlier work
[3] = cited from earlier work; for biological activity: oral
[4] = Capacity and stability of the composition as a vitamin A delivery means; assay type: physicochemical; details: for Viscosity: cold solution
Procedure: A composition that included oleic acid, monoglyceride and lysophosphatidyl choline as described in Example I was used for characterizing the capacity of the composition for vitamin A (also as described above). Vitamin A was added in batches to the composition as follows: 1st addition, 0.277 mmoles; 2nd, 0.241; 3rd, 0.276; 4th, 0.262 and 5th, 0.285. […] The millimole ratio of the composition was approximately 2:1:0.1 (oleic acid: mono-olein:lysophosphatidyl choline).
After each addition the approximate amount of time necessary for the complete dissolution of the added vitamin A was recorded, as was the extent of schlierin evident. The time needed to obtain a minimal schlieric effect was generally between 5 minutes and 60 minutes and inversely related to the amount of vitamin A added. After each addition and the achievement of a minimal schlieric effect, the solution was placed in an ice-bath in order to evaluate its stability. The relative viscosity of the cold solution was also recorded. […]

[5] = cited from earlier work; for absorption in mixed micelle versus alone: mono-olein/sodium taurocholate
[6] = excess bile salts, cited from earlier work
[7] = cited from earlier work; remark: listed apart in the source
[8] = rat, in vivo
Procedure: Tritium labeled (^3 H) vitamin A ([…]; Hoffman LaRoche) was incorporated into a lipid formulation of the following composition: 56 mg. of oleic acid (NuCheck Prep, Inc.); 36 mg. of mono-olein (NuCheck Prep, Inc.) and 6 mg. of lysophosphatidyl choline derived from soy lecithin (A. E. Staley Mfg. Co.). This corresponds to an approximate molar ratio of oleic acid: mono-olein: lysophosphatidyl choline of 2:1:0.1. (The approximate molar percentages of the components were 64.5:32.3:3.2, respectively). The composition was administered to Sprague-Dawley rats (weighing 210-230 gm) by gavage.
Tritium-labeled vitamin A (7mg. or 0.25 millimoles) was administered to Sprague-Dawley rats (as above) in 99 mg. food grade, refined corn oil (A. E. Staley Mfg. Co.).
The concentration of vitamin A equivalents in the plasma was measured by obtaining duplicate 0.05 ml. blood samples from the orbital sinus at 0.5, 1, 2, 3, 4, 6, 8 and 24 hours after administration. The blood was collected in hematocrit tubes and centrifuged; the plasma was transferred into tared scintillation vials and weighed. The radioactivity was determined by liquid scintillation counting.

[9] = oral, cited from earlier work
[10] = 1st addition, total 0.277 mmoles
[11] = 2nd addition, total 0.518 mmoles
[12] = 3rd addition, total 0.794 mmoles
[13] = 4th addition, total 1.056 mmoles
[14] = 5th addition, total 1.341 mmoles

In the case of lysophosphatidyl choline, the “absorption of lysophosphatidyl choline” value ([1]; in vivo) is listed as “rapidly absorbed intact”.
In the case of `CCCCCCCCCCCCCC(=O)O` [myristic], the “absorbed fatty acid transported in the lymph” value [2] is given as 68-80% and the “absorption of fatty acid” value [2] is given as 80-90%.
In the case of `CCCCCCCCCCCC(=O)O` [lauric], the “absorbed fatty acid transported in the lymph” value [2] is given as 15-55%.
In the case of `CCCCCCCCCC(=O)O` [decanoic], the “absorbed fatty acid transported in the lymph” value [2] is given as 5-20%.
For `CCCCC/C=C\C/C=C\CCCCCCCC(=O)O` [linoleic], the “absorption into lymph compared with saturated fatty acids” value [2] is listed as “more rapidly and to a greater extent”.
In the case of `COC1=CC(=O)C[C@@H](C)[C@]12Oc1c(Cl)c(OC)cc(OC)c1C2=O` [griseofulvin], the absorption ([3]; co-administered with high fat content meal or in oil and water emulsion) is listed as “enhanced”.
In the case of `CC1=C(/C=C/C(C)=C/C=C/C(C)=C/CO)C(C)(C)CCC1` [Vitamin A], the Schleirin [4, 10] was “none”, the “Temp. to attain a clear solution” value [4, 10] was 20 °C and the “Time to attain a clear solution” value ([4]; 1st addition, total 0.277 mmoles, 20° C.) was 1 min. The Viscosity [4, 10] was “normal”, the Schleirin [4, 11] was “minimal” and the “Temp. to attain a clear solution” value [4, 11] was 20 °C. The “Time to attain a clear solution” value ([4]; 2nd addition, total 0.518 mmoles, 20° C.) was 1 min, the Viscosity [4, 11] was “normal” and the Schleirin [4, 12] was “medium”. The “Temp. to attain a clear solution” value [4, 12] was 37 °C, the “Time to attain a clear solution” value ([4]; 3rd addition, total 0.794 mmoles, 37° C.) was 5 min and the Viscosity [4, 12] was “thicker”. For the same molecule, the Schleirin [4, 13] was “medium”, the “Temp. to attain a clear solution” value [4, 13] was 37 °C and the “Time to attain a clear solution” value ([4]; 4th addition, total 1.056 mmoles, 37° C.) was 10 min. For the same molecule, the Viscosity [4, 13] was “viscous”, the Schleirin [4, 14] was “extensive” and the “Temp. to attain a clear solution” value [4, 14] was 46 °C. The “Time to attain a clear solution” value ([4]; 5th addition, total 1.341 mmoles, 46° C.) was 10 min, the Viscosity [4, 14] was “very viscous” and the “total vitamin A added (capacity of the composition)” value ([4]; approximately 1 gm of the composition, after 5th addition) was 1.341 mmol.
For gentamycin, the “absorption from rectum and large intestine” value ([5]; bile salt: mixed lipid micelle) is listed as “comparable” and the “absorption via rectum and large intestine versus comparable dose administered duodenally” value ([5]; mixed lipid micelle, duodenal concentration even four times higher) is listed as “markedly greater”.
In the case of `[H]/N=C(/N)N[C@H]1[C@H](O)[C@@H](O)[C@H](O[C@@H]2O[C@@H](C)[C@](O)(C=O)[C@H]2O[C@@H]2O[C@@H](CO)[C@H](O)[C@@H](O)[C@@H]2NC)[C@@H](N/C(N)=N\[H])[C@@H]1O` [streptomycin], the “absorption from rectum and large intestine” value ([5]; in vivo) is listed as “comparable”, the “absorption via rectum and large intestine versus comparable dose administered duodenally” value ([5]; in vivo) is listed as “markedly greater” and the “absorption without micelle formulation” value ([5]; in vivo) is listed as “poorly absorbed”.
In the case of `O=c1[nH]cc(F)c(=O)[nH]1` [5-fluorouracil], the “absorption in mixed micelle versus alone” value ([5]; large intestine) is given as “greater” and the “absorption in mixed micelle versus alone” value ([5]; stomach or small intestine) is given as “little difference”.
For `CCCCCCCCCCCCCCCCCC(=O)O` [stearic], the “absorbed fatty acid transported in the lymph” value [2] is listed as 85% and the “absorption of fatty acid” value [2] is listed as 30-45%.
For `C[C@]12CC[C@@H]3c4ccc(O)cc4CC[C@H]3[C@@H]1CC[C@@H]2O` [estradiol], the “estradiol remaining in 2:1:2 micellar composition” value ([6]; with phosphatidyl choline) is given as 70-75%, the “estradiol remaining associated with 2:1:2 micellar composition” value ([6]; without phosphatidyl choline) is given as “about 60%” and the “initial concentrations in plasma of estradiol relative to lymph” value ([7]; 2:1:2 composition, excess bile salts) is given as “greater than those in lymph”. For the same molecule, the “estradiol co-absorbed with lipid and entering circulation via thoracic lymph” value ([7]; 2:1:2 fatty acids:monoglycerides:bile salts) was 25-50%.
In the case of Corn Oil, the “absorption of vitamin A” value [8] was “complete” and the “vitamin A absorbed” value ([8]; po, 180 min) was 77%.
In the case of `CCCCCCCCCCC(=O)O[C@H]1CC[C@H]2[C@@H]3CCC4=CC(=O)CC[C@]4(C)[C@H]3CC[C@]12C` [testosterone undecanoate], the biological activity ([3]; peanut oil solution versus aqueous micro-crystalline suspension) is given as “more biologically active”.
For `CCCCCCCC/C=C\CCCCCCCC(=O)OC[C@@H](O)COP(=O)([O-])OCC[N+](C)(C)C` [oleoyl lysophosphatidyl choline], the “increase in triglyceride and phospholipid in lymphatic transported fat” value ([1]; versus lysophosphatidyl choline from mainly saturated phosphatidyl choline) is given as 100%.
For `CCCCCCCCCCCCCCCC(=O)O` [palmitic], the “absorbed fatty acid transported in the lymph” value [2] is listed as 85% and the “absorption of fatty acid” value [2] is listed as 65-70%.
In the case of `COC1=C(OC)C(=O)C(C/C=C(\C)CC/C=C(\C)CC/C=C(\C)CC/C=C(\C)CC/C=C(\C)CC/C=C(\C)CC/C=C(\C)CC/C=C(\C)CC/C=C(\C)CCC=C(C)C)=C(C)C1=O` [ubidecarenone], the absorption of ubidecarenone ([9]; drug alone) is given as 2.3% and the absorption of ubidecarenone ([9]; in mixture of C12-18 fatty acids and monoglycerides) is given as 8.3%.
For `CC(=O)[C@H]1CC[C@H]2[C@@H]3CCC4=CC(=O)CC[C@]4(C)[C@H]3CC[C@]12C` [progesterone], the biological activity ([3]; in combination with cholesterol or its esters) is given as “good sustained biological activity”.
In the case of heparin, the “absorption from large intestine relative to small intestine” value ([5]; in vivo) is listed as “twice”, the “absorption without micelle formulation” value ([5]; in vivo) is listed as “poorly absorbed” and the “concentration in mixed micelle for potentiation, large intestine relative to small intestine” value ([5]; in vivo) is listed as “approximately one-fourth”. For the same molecule, the “effect of mixed micelles on absorption” value ([5]; in vivo) was “promotes the absorption”.
